Where a name gives a salt, the structure may show the parent alone.
What was measured:
[1] = tested on: ENR+CD organoids (ISC to Paneth cell differentiation); assay: Primary screen: basal (non-stimulated) lysozyme secretion LYZ.NS, 2.5-D 384-well ENR+CD organoid differentiation; type: cell-based, mouse; details: primary screen; for Z.LYZ.NS: standard z score
Text: (§1) High-throughput screening.

[2] = tested on: ENR+CD organoids (ISC to Paneth cell differentiation); assay: Primary screen: CCh-stimulated lysozyme secretion LYZ.S, 2.5-D 384-well ENR+CD organoid differentiation; type: cell-based, mouse; details: primary screen
Text: as §1

ENR+CD organoids = assay: Primary screen: ATP (CellTiter-Glo 3D, CTG) cell number/viability, 2.5-D 384-well ENR+CD organoids; details: primary screen;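 further: compounds given at plating and again on day 3 over a 6-day differentiation from ENR+CV stem-cell-enriched precursors, ATP measured on day 6, plate median as control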
[3] = dose 0.08 uM, FC relative to plate median
[4] = dose 0.40 uM, FC relative to plate median
[5] = dose 2.00 uM, FC relative to plate median
[6] = dose 10.00 uM, FC relative to plate median
[7] = 1st dose row of the treatment (0.08 uM by row order; dose not reprinted)
[8] = 2nd dose row of the treatment (0.40 uM by row order; dose not reprinted)
[9] = 3rd dose row of the treatment (2.00 uM by row order; dose not reprinted)
[10] = 4th dose row of the treatment (10.00 uM by row order; dose not reprinted)

## CC(C)OC(=O)C1=CN(C(=O)c2ccc(F)c(F)c2)CC(C)(C)c2c1[nH]c1ccccc21 [XL335]
[1]; dose 0.08 uM
  Dose.FC.LYZ.NS: 0.175 log2 fold change
  Z.LYZ.NS (standard z score): 1.523
[1]; dose 0.40 uM
  Dose.FC.LYZ.NS: −0.082 log2 fold change
  Z.LYZ.NS (standard z score): −0.711
[1]; dose 2.00 uM
  Dose.FC.LYZ.NS: −0.072 log2 fold change
  Z.LYZ.NS (standard z score): −0.625
[1]; dose 10.00 uM
  Dose.FC.LYZ.NS: −0.135 log2 fold change
  Z.LYZ.NS (standard z score): −1.176
[2]; dose 0.08 uM
  Dose.FC.LYZ.S: 0.093 log2 fold change
[2]; dose 0.40 uM
  Dose.FC.LYZ.S: −0.109 log2 fold change
[2]; dose 2.00 uM
  Dose.FC.LYZ.S: 0.045 log2 fold change
[2]; dose 10.00 uM
  Dose.FC.LYZ.S: −0.180 log2 fold change
ENR+CD organoids; dose 0.08 uM
  Dose.FC.CTG: 0.124 log2 fold change
ENR+CD organoids; dose 0.40 uM
  Dose.FC.CTG: −0.258 log2 fold change
ENR+CD organoids; dose 2.00 uM
  Dose.FC.CTG: −0.259 log2 fold change
ENR+CD organoids; dose 10.00 uM
  Dose.FC.CTG: −0.156 log2 fold change

## CCc1c2c(nc3ccc(OC(=O)N4CCC(N5CCCCC5)CC4)cc13)-c1cc3c(c(=O)n1C2)COC(=O)[C@]3(O)CC [Irinotecan HCl Trihydrate]
[1]; dose 0.08 uM
  Dose.FC.LYZ.NS (log2 fold change): −0.019
  Z.LYZ.NS (standard z score): −0.162
[1]; dose 0.40 uM
  Dose.FC.LYZ.NS (log2 fold change): −0.092
  Z.LYZ.NS (standard z score): −0.805
[1]; dose 2.00 uM
  Dose.FC.LYZ.NS (log2 fold change): −0.221
  Z.LYZ.NS (standard z score): −1.925
[1]; dose 10.00 uM
  Dose.FC.LYZ.NS (log2 fold change): −0.272
  Z.LYZ.NS (standard z score): −2.368
[2]; dose 0.08 uM
  Dose.FC.LYZ.S (log2 fold change): −0.040
[2]; dose 0.40 uM
  Dose.FC.LYZ.S (log2 fold change): −0.158
[2]; dose 2.00 uM
  Dose.FC.LYZ.S (log2 fold change): −0.293
[2]; dose 10.00 uM
  Dose.FC.LYZ.S (log2 fold change): −0.367
ENR+CD organoids; dose 0.08 uM
  Dose.FC.CTG (log2 fold change): −0.083
ENR+CD organoids; dose 0.40 uM
  Dose.FC.CTG (log2 fold change): −0.205
ENR+CD organoids; dose 2.00 uM
  Dose.FC.CTG (log2 fold change): −0.317
ENR+CD organoids; dose 10.00 uM
  Dose.FC.CTG (log2 fold change): −0.588

## Oc1c2ccccc2c2c3c(cccc13)N=N2 [SP600125]
[1]; [3]
  Dose.FC.LYZ.NS: 0.135 log2 fold change
[1]; dose 0.08 uM
  Z.LYZ.NS: 1.174
[1]; [4]
  Dose.FC.LYZ.NS: 0.027 log2 fold change
[1]; dose 0.40 uM
  Z.LYZ.NS: 0.232
[1]; [5]
  Dose.FC.LYZ.NS: 0.152 log2 fold change
[1]; dose 2.00 uM
  Z.LYZ.NS: 1.321
[1]; [6]
  Dose.FC.LYZ.NS: 0.022 log2 fold change
[1]; dose 10.00 uM
  Z.LYZ.NS: 0.187
[2]; [3]
  Dose.FC.LYZ.S: 0.188 log2 fold change
[2]; [4]
  Dose.FC.LYZ.S: 0.092 log2 fold change
[2]; [5]
  Dose.FC.LYZ.S: 0.090 log2 fold change
[2]; [6]
  Dose.FC.LYZ.S: 0.084 log2 fold change
ENR+CD organoids; [3]
  Dose.FC.CTG: 0.197 log2 fold change
ENR+CD organoids; [4]
  Dose.FC.CTG: 0.145 log2 fold change
ENR+CD organoids; [5]
  Dose.FC.CTG: 0.103 log2 fold change
ENR+CD organoids; [6]
  Dose.FC.CTG: −0.020 log2 fold change

## CC(=O)Nc1nc2c(Oc3cc(-c4ccc(C(F)(F)F)cc4)ncn3)cccc2s1 [AMG-517]
[1]; dose 0.08 uM
  Dose.FC.LYZ.NS: 0.020 log2 fold change
  Z.LYZ.NS (standard z score): 0.178
[1]; dose 0.40 uM
  Dose.FC.LYZ.NS: 0.060 log2 fold change
  Z.LYZ.NS (standard z score): 0.522
[1]; dose 2.00 uM
  Dose.FC.LYZ.NS: −0.006 log2 fold change
  Z.LYZ.NS (standard z score): −0.051
[1]; dose 10.00 uM
  Dose.FC.LYZ.NS: 0.031 log2 fold change
  Z.LYZ.NS (standard z score): 0.267
[2]; dose 0.08 uM
  Dose.FC.LYZ.S: 0.084 log2 fold change
[2]; dose 0.40 uM
  Dose.FC.LYZ.S: 0.060 log2 fold change
[2]; dose 2.00 uM
  Dose.FC.LYZ.S: 0.002 log2 fold change
[2]; dose 10.00 uM
  Dose.FC.LYZ.S: 0.266 log2 fold change
ENR+CD organoids; dose 0.08 uM
  Dose.FC.CTG: 0.161 log2 fold change
ENR+CD organoids; dose 0.40 uM
  Dose.FC.CTG: 0.113 log2 fold change
ENR+CD organoids; dose 2.00 uM
  Dose.FC.CTG: 0.112 log2 fold change
ENR+CD organoids; dose 10.00 uM
  Dose.FC.CTG: 0.056 log2 fold change

## Cn1c(N2CCCCS2(=O)=O)nc(C(=O)NCc2ccc(F)cc2)c(O)c1=O [BMS-707035]
[1]; dose 0.08 uM
  Dose.FC.LYZ.NS: 0.107 log2 fold change
  Z.LYZ.NS (standard z score): 0.933
[1]; dose 0.40 uM
  Dose.FC.LYZ.NS: 0.135 log2 fold change
  Z.LYZ.NS (standard z score): 1.174
[1]; dose 2.00 uM
  Dose.FC.LYZ.NS: 0.110 log2 fold change
  Z.LYZ.NS (standard z score): 0.955
[1]; dose 10.00 uM
  Dose.FC.LYZ.NS: 0.070 log2 fold change
  Z.LYZ.NS (standard z score): 0.613
[2]; dose 0.08 uM
  Dose.FC.LYZ.S: 0.134 log2 fold change
[2]; dose 0.40 uM
  Dose.FC.LYZ.S: 0.182 log2 fold change
[2]; dose 2.00 uM
  Dose.FC.LYZ.S: 0.048 log2 fold change
[2]; dose 10.00 uM
  Dose.FC.LYZ.S: 0.050 log2 fold change
ENR+CD organoids; dose 0.08 uM
  Dose.FC.CTG: 0.318 log2 fold change
ENR+CD organoids; dose 0.40 uM
  Dose.FC.CTG: 0.238 log2 fold change
ENR+CD organoids; dose 2.00 uM
  Dose.FC.CTG: 0.279 log2 fold change
ENR+CD organoids; dose 10.00 uM
  Dose.FC.CTG: 0.138 log2 fold change

## CC1(C)CCC(CN2CCN(c3ccc(C(=O)NS(=O)(=O)c4ccc(NCC5CCOCC5)c([N+](=O)[O-])c4)c(Oc4cnc5[nH]ccc5c4)c3)CC2)=C(c2ccc(Cl)cc2)C1 [ABT-199 (GDC-0199)]
[1]; [7]
  SSMD.LYZ.NS_Rep (strictly standardized mean difference): −0.009
[1]; [8]
  SSMD.LYZ.NS_Rep (strictly standardized mean difference): −0.192
[1]; [9]
  SSMD.LYZ.NS_Rep (strictly standardized mean difference): −0.116
[1]; [10]
  SSMD.LYZ.NS_Rep (strictly standardized mean difference): −0.810
[1]; dose 0.08 uM
  Dose.FC.LYZ.NS: −0.002 log2 fold change
  Z.LYZ.NS (standard z score): −0.013
[1]; dose 0.40 uM
  Dose.FC.LYZ.NS: −0.029 log2 fold change
  Z.LYZ.NS (standard z score): −0.251
[1]; dose 2.00 uM
  Dose.FC.LYZ.NS: −0.016 log2 fold change
  Z.LYZ.NS (standard z score): −0.136
[1]; dose 10.00 uM
  Dose.FC.LYZ.NS: −0.169 log2 fold change
  Z.LYZ.NS (standard z score): −1.471
[2]; [7]
  SSMD.LYZ.S_Rep (strictly standardized mean difference): −0.260
  Z.LYZ.S (standard z score): −0.285
[2]; [8]
  SSMD.LYZ.S_Rep (strictly standardized mean difference): 0.443
  Z.LYZ.S (standard z score): 0.494
[2]; [9]
  SSMD.LYZ.S_Rep (strictly standardized mean difference): −0.368
  Z.LYZ.S (standard z score): −0.404
[2]; [10]
  SSMD.LYZ.S_Rep (strictly standardized mean difference): −1.131
  Z.LYZ.S (standard z score): −1.890
[2]; dose 0.08 uM
  Dose.FC.LYZ.S: −0.044 log2 fold change
[2]; dose 0.40 uM
  Dose.FC.LYZ.S: 0.076 log2 fold change
[2]; dose 2.00 uM
  Dose.FC.LYZ.S: −0.063 log2 fold change
[2]; dose 10.00 uM
  Dose.FC.LYZ.S: −0.292 log2 fold change
ENR+CD organoids; [7]
  SSMD.CTG.Rep (strictly standardized mean difference): 0.051
ENR+CD organoids; [8]
  SSMD.CTG.Rep (strictly standardized mean difference): 0.111
ENR+CD organoids; [9]
  SSMD.CTG.Rep (strictly standardized mean difference): −0.377
ENR+CD organoids; [10]
  SSMD.CTG.Rep (strictly standardized mean difference): −1.402
ENR+CD organoids; dose 0.08 uM
  Dose.FC.CTG: 0.019 log2 fold change
  Z.CTG (standard z score): 0.045
ENR+CD organoids; dose 0.40 uM
  Dose.FC.CTG: 0.038 log2 fold change
  Z.CTG (standard z score): 0.090
ENR+CD organoids; dose 2.00 uM
  Dose.FC.CTG: −0.278 log2 fold change
  Z.CTG (standard z score): −0.665
ENR+CD organoids; dose 10.00 uM
  Dose.FC.CTG: −0.519 log2 fold change
  Z.CTG (standard z score): −1.240

## O=C(c1ccc(Nc2nccc(-c3cc4ccccc4s3)n2)cc1)N1CCC(N2CCCC2)CC1 [IKK-16 (IKK Inhibitor VII)]
[1]; dose 0.08 uM
  Dose.FC.LYZ.NS (log2 fold change): 0.104
  Z.LYZ.NS (standard z score): 0.903
[1]; dose 0.40 uM
  Dose.FC.LYZ.NS (log2 fold change): 0.020
  Z.LYZ.NS (standard z score): 0.176
[1]; dose 2.00 uM
  Dose.FC.LYZ.NS (log2 fold change): −0.081
  Z.LYZ.NS (standard z score): −0.708
[1]; dose 10.00 uM
  Dose.FC.LYZ.NS (log2 fold change): −0.291
  Z.LYZ.NS (standard z score): −2.531
[2]; dose 0.08 uM
  Dose.FC.LYZ.S (log2 fold change): 0.092
[2]; dose 0.40 uM
  Dose.FC.LYZ.S (log2 fold change): 0.028
[2]; dose 2.00 uM
  Dose.FC.LYZ.S (log2 fold change): −0.142
[2]; dose 10.00 uM
  Dose.FC.LYZ.S (log2 fold change): −0.383
ENR+CD organoids; dose 0.08 uM
  Dose.FC.CTG (log2 fold change): 0.058
  Z.CTG (standard z score): 0.139
ENR+CD organoids; dose 0.40 uM
  Dose.FC.CTG (log2 fold change): −0.051
  Z.CTG (standard z score): −0.122
ENR+CD organoids; dose 2.00 uM
  Dose.FC.CTG (log2 fold change): −0.431
  Z.CTG (standard z score): −1.029
ENR+CD organoids; dose 10.00 uM
  Dose.FC.CTG (log2 fold change): −0.950
  Z.CTG (standard z score): −2.268

Source: patent publication US20220323406A1, “METHODS AND COMPOSITIONS FOR DIFFERENTIATING STEM CELLS” (Massachusetts Institute of Technology, priority 2019, published 2022)
